{
  "source": "patent US20250305023A1",
  "about": "“MEASUREMENT OF PERMEATION OF SMALL MOLECULES INTO GRAM NEGATIVE BACTERIA” (University of Virginia Patent Foundation, priority 2022, published 2025)",
  "key": {"[1]": {"test_system": "E. coli expressing HaloTag", "test": "BaCAPA control: labeling with chloroalkane-tagged dye", "format": "cell-based, Escherichia coli", "details": "5 μM dye, compared with R110cl, FIG. 2C", "experimental": "In an embodiment, fluorescence levels were determined in bacterial cells that express HaloTag proteins in the cytosol by encoding the protein on an inducible plasmid. Bacterial cells carrying the HaloTag-expressing plasmid were grown to mid-log, induced with isopropyl-β-D-1-thiogalactopyranoside (IPTG), and incubated with a fluorophore modified chloroalkane. Cytosolic HaloTag promotes the formation of a covalent bond with the fluorophore-linked chloroalkane tail (FIG. 2A). Total labeling levels of bacterial cells is then quantified using flow cytometry. In a first step in the BaCAPA, bacterial cells were treated with Rhodamine 110 modified with chloroalkane (R110cl). […] Appreciating that the fluorophore itself could be subject to the same barrier elements that are inherent to E. coli, there was also evaluated the labeling of bacterial cells with a smaller fluorophore, namely coumarin (COMcl). […] While it was clear that coumarin could also covalently modify HaloTag-expressing bacterial cells, the relative fluorescence increase was more modest in cells treated with COMcl (FIG. 2C). […]\nTo empirically establish the dye concentration that optimizes the signal output for the assay, bacterial cells were treated with a range of R110cl concentrations (FIG. 2D). […] HaloTag labeling with R110cl can be analyzed from the whole cellular proteome because of the selectivity of this enzymatic reaction. […]"}, "[2]": {"test_system": "E. coli expressing HaloTag", "test": "Bacterial ChloroAlkane Penetration Assay (BaCAPA) pulse-chase, flow cytometry", "format": "cell-based, Escherichia coli", "details": "for EC50: Escherichia coli, pulse with chloroalkane-tagged molecule, IPTG induced, flow cytometry, read-out: EC50 (apparent accumulation/permeation, BaCAPA)"}, "[3]": {"test_system": "E. coli", "test": "Minimum Inhibitory Concentration", "format": "cell-based, Escherichia coli", "details": "for MIC: Escherichia coli, 24 h, 37° C., MH media", "experimental": "For all biological assays, laboratory strains of wild type E. coli (ATCC 25922), and K12 E. coli strains BL21(DE3) and E. coli Lemo21(DE3) were grown with shaking at 37° C. overnight from freezer glycerol stocks in 5 mL of Luria Broth (LB) media.\nMinimum Inhibitory Concentration. Compounds were serially diluted 2-fold from stock solutions to yield 12 test concentrations in U-bottom, 96-well plates. Overnight cultures were used to inoculate LB media 1:100 and regrown to exponential phase, as determined by optical density recorded at 600 nm (OD600). All cultures were diluted again to ca. 10^6 CFU/mL in MH media, and 100 μL was inoculated into each well of a U-bottom 96-well plate (BD Biosciences, BD 351177) containing 100 μL of compound solution (in line with CLSI Standards).^4Plates were incubated statically at 37° C. for 24 h upon which time wells were evaluated visually for bacterial growth. The MIC was determined as the lowest concentration of compound resulting in no bacterial growth visible to the naked eye, based on the majority of three independent experiments. Growth and sterility controls were conducted for each plate."}, "[4]": {"test_system": "E. coli outer membrane", "test": "Outer membrane disruption: co-treatment with R110cl in BaCAPA", "format": "cell-based, Escherichia coli", "details": "for cellular fluorescence on co-incubation with R110cl: various concentrations, 5 μM R110cl, FIG. 3A/3B", "text": "It is well appreciated that the OM is the major barrier to the permeation of small molecules.^28 Considerable efforts have been devoted to the discovery of molecules that disrupt the OM barrier as antibiotic adjuvants with the goal of potentiating them and/or circumventing resistance.^29-31 Therefore, these agents hold the promise of synergistically enhancing the permeation of potential antibiotics in a broad and, potentially, impactful way.\nWhile there was a decrease in signal-to-noise, the signal strength in the presence of IPTG was well above that in the absence of IPTG.\nPolymyxin nonapeptide (PMBN) mediated bacterial chloroalkane-tagged molecule penetration. For the PMBN-mediated penetration assay, 25 μL of the desired PMBN concentration was added into the wells of a 96-well plate at 3× the final concentration along with 25 μL of the HaloTag protein cell suspension (both IPTG induced and non-induced cells). Next, 25 μL of the serially diluted samples of the chloroalkane-tagged test molecule was added into the wells at 3× the desired final concentration, in quadruplicate. The plates were incubated at 37° C. with shaking at 250 RPM. After 30 min, the plate was centrifuged to pellet the cells using a Jouan C4i centrifuge (Thermofisher Scientific). The supernatant was discarded, and the pellet was washed twice with PBS. The chase step followed by addition into each test well, 50 μL of […] chloroalkane-tagged rhodamine 110 and incubated for 30 min at 37° C. with shaking in a shaker incubator at 250 RPM. The plate was centrifuged to pellet the cells and cells were washed three times with PBS and fixed with 4% formaldehyde by incubating at room temperature for 30 min. The cells were analyzed by flow cytometry on the Attune NXT Acoustic Focusing Cytometer (Invitrogen) by exciting using the blue laser ([…])."}, "[5]": {"test_system": "E. coli cells"}},
  "data": [
    {"molecule": "Cc1c(CC(=O)NCCOCCOCCCCCCCl)c(=O)oc2cc(N)ccc12", "note": "[COMcl]", "values": [
      {"measurement": "relative fluorescence increase in HaloTag-expressing cells", "setting": "[1]", "value": "more modest"}
    ]},
    {"molecule": "Cl.NCCOCCOCCCCCCCl", "note": "[Compound 1, 2-(2-((6-Chlorohexyl)oxy)ethoxy)ethanamine hydrochloride]", "values": [
      {"measurement": "EC50", "setting": "[2]; chase with 5 μM R110cl", "value": "~5", "unit": "µM"},
      {"measurement": "concentration at which nearly background fluorescence levels were observed", "setting": "[2]; concentration scan, chase with 5 μM R110cl", "value": 12, "unit": "µM"}
    ]},
    {"molecule": "C[N+](C)(C)CC(=O)NCCOCCOCCCCCCCl", "note": "[Compound 5, HaloTag-betainamide]", "values": [
      {"measurement": "relative accumulation in E. coli", "setting": "[2]; methylation series of amino group, FIG. 4A", "value": "statistically significant lowered accumulation level"}
    ]},
    {"molecule": "O=C(CCC(=O)N1CCN(c2cc3c(cc2F)c(=O)c(C(=O)O)cn3C2CC2)CC1)NCCOCCOCCCCCCCl", "note": "[Compound 6]", "values": [
      {"measurement": "EC50", "setting": "[2]; chase with 5 μM R110cl", "value": 42.2, "unit": "µM"},
      {"measurement": "MIC", "setting": "[3]", "value": 0.5, "unit": "µg/mL"}
    ]},
    {"molecule": "O=C(CN1CCN(c2cc3c(cc2F)c(=O)c(C(=O)O)cn3C2CC2)CC1)NCCOCCOCCCCCCCl", "note": "[Compound 7]", "values": [
      {"measurement": "MIC", "setting": "[3]", "value": 0.5, "unit": "µg/mL"}
    ]},
    {"molecule": "O=C(NCCOCCOCCCCCCCl)c1cn(C2CC2)c2cc(N3CCNCC3)c(F)cc2c1=O", "note": "[Compound 8, Ciprofloxacin-carboxy-HaloTag amide]", "values": [
      {"measurement": "MIC", "setting": "[3]", "value": 4, "unit": "µg/mL"},
      {"measurement": "increase of MIC value", "setting": "[3]; relative to derivatives 6 and 7", "value": 8, "unit": "fold"}
    ]},
    {"molecule": "Clc1cccc(CN=C2Nc3ccccc3NC23CCNCC3)c1", "note": "[liproxstatin]", "values": [
      {"measurement": "cellular fluorescence on co-incubation with R110cl", "setting": "[4]", "value": "increase in cellular fluorescence"}
    ]},
    {"molecule": "polymyxin B nonapeptide [PMBN]", "values": [
      {"measurement": "cellular fluorescence relative to cells not treated with PMBN", "setting": "[4]; 10 μM of PMBN, co-treatment with R110cl", "value": "double"},
      {"measurement": "cellular fluorescence on co-incubation with R110cl", "setting": "[4]", "value": "concentration-dependent increase in cellular fluorescence"},
      {"measurement": "bacterial viability", "setting": "[5]", "value": "no loss of bacterial viability"}
    ]}
  ]
}
